The record followed here is PubChem BioAssay (NCI).

Several values for one entry are separate records, joined by “and”; a condition that tells them apart may be missing. Equal entries are not always repeated.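 Test compounds were applied to cells in 96-well plates for 48 hours at 5 doses. GI50 is the concentration that inhibits growth by half. TGI: total growth inhibition.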

Holding throughout (experiment): NCI anticancer screen, dose series, 48 h
Assay [1] concerns CAKI-1 renal.
In assay [2] the test system is SF-539 CNS.
For assay [3], the system named is K-562 leukemia.
Assay [4] deals with MALME-3M melanoma.
Assay [5] concerns HCT-15 colon.
Assay [6] relates to OVCAR-4 ovarian.
Assay [7] concerns HCT-116 colon.
Assay [8] has as its system TK-10 renal.
In assay [9] the test system is MDA-MB-435.

Take `O=C(NOC(=O)c1ccc([N+](=O)[O-])cc1)c1ccc(Cl)cc1`: the TGI in assay [1], in assay [2], in assay [3], in assay [4], in assay [5] and in assay [6] was over 100 µM in each case. In addition, in assay [7], the TGI is over 100 µM.
With `Nc1nc(Cl)cc(NCCCCCCNc2cc(Cl)nc(N)n2)n1`, the TGI in assay [1], in [2], in [3], in assay [5], in assay [8] and in [6] was over 100 µM in each case. Further, the TGI in assay [7] is over 100 µM.
As for `COc1cc(/C=C2/C(=O)N(C(=O)c3ccccc3O)N=C2C)ccc1O`, the TGI in assay [1] is over 25.5 µM; in assay [9] it was over 100 µM; in [3], over 100 µM; in assay [4] it was over 100 µM; in [5], over 100 µM; in assay [8], over 100 µM. In addition, the TGI in assay [6] and in assay [7] was over 100 µM throughout.
For the compound `Cc1cc(N(CCC#N)CCC#N)ccc1/C=C/C(=O)Nc1ccccc1Cl`, the TGI in assay [1], in assay [2], in [3], in assay [4], in [5] and in assay [8] was over 100 µM each time. Besides, the TGI in assay [6] and in assay [7] was over 100 µM throughout.
For `CCCCOP1(=O)C=CC(Cl)=C(C)C1` (centres undefined), the TGI in assay [1] is over 100 µM; in assay [2], 36.3 µM; in [3], 50 µM; in assay [4], 47.5 µM; in assay [5], 32.8 µM; in assay [8] it was 75.1 µM. The TGI in [6] stood at 73.7 µM; in assay [7], 46.9 µM.
Consider `CC(=O)N=S(NC(=O)c1ccc(C)cc1)C(Cl)(Cl)Cl` (centres undefined), for which the TGI in assay [9] is 40.7 µM; in assay [2] it was over 100 µM; in [3], over 100 µM; in assay [4], 96 µM; in assay [5], over 100 µM; in assay [8], over 100 µM. Further, the TGI in assay [6] was 77.7 µM; in assay [7], over 100 µM.
In the case of `C=C(C[N+](C)(C)C)N/N=C/c1oc(-c2ccc(OC)c(OC)c2)c(-c2ccc(OC)c(OC)c2)c1[N+](=O)[O-]`, the TGI was over 100 µM in [1]; 31.6 µM in [2]; 52.5 µM in assay [3]; 36.8 µM in assay [5]; 50.6 µM in assay [8]; 38 µM in [6]. Besides, in assay [7], the TGI came to 32.5 µM.
With `CC(=O)Nc1ccc2c(c1)CN1C(=O)c3ccccc3C1=N2`, the GI50 in assay [1], in assay [9], in assay [2], in assay [3], in [4] and in assay [5] was over 100 µM each time. For the same compound, the GI50 in assay [6] and in assay [7] was over 100 µM each time. Further, the TGI in assay [1], in assay [9], in [2], in assay [3], in [4] and in assay [5] was over 100 µM throughout. For the same compound, the TGI in assay [6] and in assay [7] was over 100 µM in each case.
Take `COc1cc(-c2nn3c(=O)n(-c4ccc(Cl)cc4)c(=O)nc3s2)cc(OC)c1OC`: the GI50 in assay [1] was over 50 µM; in assay [2] it was 32.9 µM; in assay [3], 15.8 µM; in [4], over 50 µM; in assay [5], over 50 µM; in [8] it was 19.7 µM. In addition, the GI50 in assay [6] was 16.1 µM. The TGI was over 62.2 µM in assay [1]; 50 µM and 45.6 µM in [2]; 50 µM and > 31.6 µM in assay [3]; over 100 µM in assay [4]; over 100 µM in [5]; 50 µM and 29.6 µM in assay [8]. Further, the TGI was 50 µM and 99.8 µM in assay [6]; over 100 µM in [7].
Take `O=C1[C@H]2ON(c3ccccc3)C(c3cccc([N+](=O)[O-])c3)[C@H]2C(=O)N1c1ccc(Cc2ccc(N3C(=O)[C@@H]4ON(c5ccccc5)C(c5cccc([N+](=O)[O-])c5)[C@@H]4C3=O)cc2)cc1` (some centres undefined): the TGI in [1], in assay [2], in assay [3], in [4], in assay [5] and in [8] was over 100 µM throughout. For the same compound, the TGI in [6] and in assay [7] was over 100 µM throughout.
`O=C(O)C(CS)N=Cc1nc(-c2ccccc2)oc1O` (centres undefined): the TGI in assay [2], in [3], in assay [4], in [5], in assay [8] and in assay [6] was over 100 µM throughout. This compound returned a TGI in assay [7] of over 100 µM.
Consider `O=C1Nc2ccc(Br)cc2C1=Nc1ccc(Cl)cc1`, for which the TGI in [1] was over 100 µM; in [9], 20.6 µM; in assay [2] it was 19.4 µM; in [3], 73.3 µM; in assay [4], 48.5 µM; in assay [5], 36.8 µM. The TGI in assay [8] was 51.4 µM; in assay [7] it was 62.9 µM.
As to `C=CCN(N=O)C(=O)ON1C(=O)CCC1=O`, the TGI in assay [2], in [3], in assay [4], in [5], in assay [8] and in assay [6] was over 100 µM each time. For the same compound, the TGI in assay [7] was over 100 µM.
Take `COC(=O)C1=C(C(=O)OC)N(C(C)C)[C@H]2C(C(=O)OC)=C(C(=O)OC)N(C(C)C)[C@@H]12`: the TGI in [1], in assay [2], in [3], in [4], in assay [5] and in assay [8] was over 100 µM each time. Moreover, the TGI in assay [6] and in [7] was over 100 µM in each case.
In the case of `CCCC/C=C1\CCC(CN2CCCC2)C1=O` (centres undefined), the TGI in [2] came to 29.8 µM; in assay [3] it was 11.1 µM; in assay [4], 33.1 µM; in [5], 11.2 µM; in [8], 6.3 µM; in assay [7], 27.3 µM.
For the compound `CC1(C)Oc2ccccc2N2O[C@@H]3C(=O)N(c4ccccc4)C(=O)[C@@H]3C21c1ccccc1` (some centres undefined), the TGI in [1] was 60.8 µM; in assay [2], 31.7 µM; in [3] it was over 100 µM; in [4] it was 42.5 µM; in [8], 33.1 µM; in assay [6] it was 34.1 µM. In assay [7], this compound came in with a TGI of 59.7 µM.
As for `CCC1(Cl)C(=O)NC(=O)N(C2CC(O)C(CO)O2)C1N=[N+]=[N-]` (centres undefined), the TGI in assay [1], in [2], in assay [3], in assay [4], in [8] and in assay [6] was over 100 µM each time.
As to `BrC(Br)([P+](c1ccccc1)(c1ccccc1)c1ccccc1)[P+](c1ccccc1)(c1ccccc1)c1ccccc1`, the TGI in [1] was 39.5 µM; in assay [2], 27.8 µM; in assay [4], 26.2 µM; in assay [5] it was 98.2 µM; in assay [8], over 100 µM; in assay [6], 43.3 µM. In [7], this compound displayed a TGI of 46 µM.
`CCOC(=O)c1cc(C(=O)O)c(=O)n2c1[nH]c1ccccc12`: the TGI in [1], in [2], in assay [3], in assay [4], in assay [5] and in [8] was over 100 µM each time. For the same compound, the TGI in assay [6] and in [7] was over 100 µM throughout.
For the compound `O=c1/c(=C/c2ccc3c(c2)OCO3)sc2nnc(Cc3ccccc3)n12`, the TGI in assay [1], in assay [2], in assay [3], in [4], in [5] and in assay [8] was over 100 µM throughout. The TGI in assay [6] and in assay [7] was over 100 µM each time.
Take `c1cc2ccc1C1NCCCN1CCN1CCCNC1c1ccc(cc1)C1NCCCN1CCN1CCCNC21` (centres undefined): the TGI in [1], in assay [2], in assay [3], in assay [4], in [5] and in assay [8] was over 100 µM each time. Further, the TGI in assay [6] and in assay [7] was over 100 µM each time.
For the compound `CC12O[Te]34OC1(C)C(C)(O3)C2(C)O4`, the TGI in [1] came out at 22.6 µM; in [2], 28.2 µM; in assay [4] it was 32.7 µM; in assay [5], 54 µM; in assay [8], 29.4 µM; in [6], 27.4 µM. The compound also returned a TGI in assay [7] of 23.2 µM.
With `C1=CC=C2NCCSCCNC3=CC=CC=CC3=NCCSCCN=C2C=C1`, the TGI in assay [1], in assay [3], in assay [4], in assay [5], in [8] and in assay [6] was over 100 µM each time. Moreover, the TGI in assay [7] is over 100 µM.
With `COC(=O)Cc1cc(=O)oc2c1C(=O)CCC2`, the TGI in assay [1], in assay [2], in [3], in [4], in [5] and in [8] was over 100 µM throughout. The TGI in assay [6] and in [7] was over 100 µM each time.
For `O=C1OC(c2ccc(Cl)c3ccccc23)c2ccccc21` (centres undefined), the TGI in assay [1], in [2], in assay [3], in assay [4], in assay [5] and in [6] was over 100 µM throughout. In [7], this compound displayed a TGI of over 100 µM.
As for `COc1cc2c3c(c1OC)/C(=N/OS(=O)(=O)c1ccc(C)cc1)CC3N(S(=O)(=O)c1ccc(C)cc1)CC2` (centres undefined), the TGI in [1], in assay [2], in assay [3], in [4], in assay [8] and in assay [6] was over 100 µM throughout. Also, the TGI in assay [7] was over 100 µM.
Turning to `CN1C(=O)CC2(C)c3cc(C=O)ccc3N(C)C12` (centres undefined), the TGI in [2], in assay [3], in assay [4], in assay [5], in assay [8] and in assay [6] was over 100 µM each time. The TGI in assay [7] was over 100 µM.
Regarding `CN1C=C(C(N)=O)C2CC(O)[C@@](NC(=O)CS(N)(=O)=O)(C(=O)O)C2C1` (some centres undefined), the TGI in [1] was over 100 µM; in assay [2] it was 4.41 µM; in assay [3], over 100 µM; in assay [4], 20.3 µM; in [5] it was 66.3 µM; in [8], 28.5 µM. Also, the results for the TGI in [6] and in assay [7] were 4.15 µM and 18.7 µM, respectively.
Consider `CCOc1ccccc1NC(=O)CCC(=O)NN`, for which the TGI in [1], in [2], in assay [3], in [4], in assay [5] and in assay [8] was over 100 µM in each case. The TGI in assay [6] and in [7] was over 100 µM in each case.
For `O=C(/C(=N/Nc1cn[nH]c(=O)c1Cl)c1ccccc1)c1ccccc1`, the TGI in [1] was 93.1 µM; in assay [9], 32.6 µM; in assay [2], 71.1 µM; in assay [3] it was over 100 µM; in [4], over 100 µM; in [5], 51.3 µM. The figures for the TGI in [8], in [6] and in [7] were over 100 µM, over 100 µM and 99.1 µM, respectively.
With `NC(=O)c1ncn(C2OC(CO)C(O)C2O)c1NC(=S)NC(=O)c1ccccc1` (centres undefined), the TGI in assay [1], in assay [2], in assay [3], in assay [4], in [8] and in [6] was over 100 µM each time. This compound also displayed a TGI in [7] of over 100 µM.
In the case of `O=c1ncccn1C1OC(CO)C(O)C1F` (centres undefined), the TGI in assay [1], in assay [2], in [3], in assay [4], in assay [5] and in assay [8] was over 100 µM in each case. For the same compound, the TGI in [6] and in [7] was over 100 µM throughout. In addition, the GI50 in assay [2], in assay [3], in [5] and in [7] was over 100 µM throughout.
